Data on nine compounds can be found in ChEMBL document CHEMBL1201862, “PubChem BioAssay data set” (2004).

Structures are written as SMILES.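 Five concentrations, 48 hours, 96-well plates. Here, GI50 denotes the concentration required for 50% inhibition of growth.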 Activity calls are given as the source filed them. Rule as the data show it: active = GI50 up to about 1.1 µM and inactive = higher. A value given as a limit tells only on which side of the number the result lay.

Among the test systems are EKVX; HCT-15; HOP-62; IGROV-1; Malme-3M; NCI-H23; OVCAR-3; RPMI-8226; RXF 393; SF-295; SF-539; SK-MEL-28; SK-MEL-5; SNB-75; SW-620; UO-31; HOP-92; NCI-H522.
What all share (assay): inhibition of tumour cell growth, NCI panel, 48 h

As for `N#[N+]c1ccccc1Sc1ccc(Cl)cc1`, the GI50 in the test with EKVX was > 100 µM (inactive); with HCT-15, greater than 100 µM; in the test on HOP-62, 40.4 µM (inactive); in the test with IGROV-1, 82.8 µM (inactive); in the test on Malme-3M, > 100 µM (inactive); with NCI-H23, 47.8 µM (inactive). Also, the GI50 was > 100 µM (inactive) with OVCAR-3; 52.4 µM (inactive) in the test on RPMI-8226; 32.2 µM (inactive) in the test on RXF 393; > 100 µM (inactive) in the test on SF-295; > 100 µM (inactive) in the test on SF-539; > 100 µM (inactive) in the test with SK-MEL-28. Also, the GI50 is 61.2 µM (inactive) in the test with SK-MEL-5, > 100 µM (inactive) in the test on SNB-75, > 100 µM (inactive) in the test with SW-620 and > 100 µM (inactive) in the test on UO-31.
As for `C[C@]12CC(C=O)C(=O)C(O)=C1CC[C@@H]1C2CC[C@@]2(C)C1CC[C@]2(C)O` (stereo not given in full), the GI50 in the test with EKVX is 31.8 µM (inactive); with HCT-15, 23 µM; with HOP-62, 22.1 µM (inactive); in the test with HOP-92, 16 µM (inactive); in the test on IGROV-1 it was 19.2 µM (inactive); in the test with Malme-3M, 5.06 µM (inactive). Also, the GI50 was 21.7 µM (inactive) in the test with NCI-H23; 24.8 µM (inactive) in the test with OVCAR-3; 16.6 µM (inactive) in the test on RPMI-8226; 21.4 µM (inactive) in the test on RXF 393; 27.1 µM (inactive) in the test on SF-295; 18.5 µM (inactive) in the test on SF-539. The GI50 in the test with SK-MEL-28 was 25.8 µM (inactive); with SK-MEL-5 it was 17.6 µM (inactive); with SNB-75, 20.6 µM (inactive); in the test with SW-620 it was 34.3 µM (inactive); in the test with UO-31, 21.3 µM (inactive).
On to `COC(=O)C12C3C4C1C1C2C3C41I` (stereo not given), for which the GI50 was > 100 µM (inactive) in the test on EKVX; greater than 100 µM in the test with HCT-15; > 100 µM (inactive) in the test on HOP-62; > 100 µM (inactive) with HOP-92; > 100 µM (inactive) in the test on IGROV-1; > 100 µM (inactive) in the test with Malme-3M. Moreover, the GI50 in the test with NCI-H23, with OVCAR-3, with RPMI-8226, in the test with RXF 393, with SF-295 and in the test with SF-539 was > 100 µM (inactive) throughout. The GI50 with SK-MEL-28, with SK-MEL-5, with SW-620 and in the test on UO-31 was > 100 µM (inactive) in each case.
`NC(=O)N/N=C(\CC1OC(=O)c2ccccc21)c1ccc([N+](=O)[O-])cc1` (stereo not given): the GI50 in the test with EKVX was 33.8 µM (inactive); in the test on HCT-15 it was 24.5 µM; in the test on HOP-62 it was 22.7 µM (inactive); in the test with IGROV-1, 23.7 µM (inactive); with Malme-3M it was 25.3 µM (inactive); in the test with OVCAR-3 it was 49.1 µM (inactive). In addition, the GI50 in the test on RPMI-8226 was 31.3 µM (inactive); in the test on RXF 393, 14.9 µM (inactive); in the test with SF-295, 68.4 µM (inactive); in the test on SF-539 it was 21.5 µM (inactive); with SK-MEL-5, 23.1 µM (inactive); with SNB-75 it was 27.1 µM (inactive). Besides, the GI50 in the test on SW-620 was 35.7 µM (inactive); in the test on UO-31 it was 76.6 µM (inactive).
With `CCc1cc(Cc2cc(Cl)c(NC(=O)C(=O)C3NC(=O)NC3=O)c(CC)c2)cc(Cl)c1NC(=O)C(=O)C1NC(=O)NC1=O` (stereo not given), the GI50 in the test with EKVX was > 100 µM (inactive); in the test with HCT-15 it was 17.3 µM; in the test on HOP-62, > 100 µM (inactive); with HOP-92, > 100 µM (inactive); in the test with IGROV-1, > 100 µM (inactive); with Malme-3M, > 100 µM (inactive). Besides, the GI50 in the test on NCI-H23 was 26.6 µM (inactive); in the test on OVCAR-3 it was 36.8 µM (inactive); in the test on RPMI-8226, 26.4 µM (inactive); in the test with RXF 393 it was 22.9 µM (inactive); in the test with SF-295, 51.4 µM (inactive); in the test on SF-539 it was 35.1 µM (inactive). Also, the GI50 is 37.5 µM (inactive) in the test with SK-MEL-28; > 100 µM (inactive) with SK-MEL-5; 30.9 µM (inactive) in the test with SNB-75; 8.47 µM (inactive) in the test with SW-620; > 100 µM (inactive) in the test with UO-31.
Regarding `CCn1c(=O)c2ccccc2n2c(=O)c3cc4ccccc4cc3nc12`, the GI50 in the test on EKVX is > 100 µM (inactive); with HCT-15, greater than 100 µM; in the test on HOP-62, 96.8 µM (inactive); in the test on IGROV-1, > 100 µM (inactive); in the test on Malme-3M, > 100 µM (inactive); in the test on NCI-H23 it was > 100 µM (inactive). Moreover, the GI50 in the test with NCI-H522 is 98.9 µM (inactive); with OVCAR-3, > 100 µM (inactive); with RPMI-8226, > 100 µM (inactive); in the test with RXF 393, 15.2 µM (inactive); with SF-295, 28.3 µM (inactive); in the test on SF-539 it was 62.7 µM (inactive). Further, the GI50 is 63 µM (inactive) in the test on SK-MEL-5, 27.4 µM (inactive) with SNB-75, > 100 µM (inactive) in the test on SW-620 and > 100 µM (inactive) in the test with UO-31.
For `O=c1c2ccccc2nc(-c2ccccc2)n1NCC1(O)OCC(O)C(O)C1O` (stereo not given), the GI50 in the test on EKVX was > 100 µM (inactive); in the test on HCT-15, greater than 100 µM; in the test on HOP-62, > 100 µM (inactive); with HOP-92, > 100 µM (inactive); with IGROV-1 it was > 100 µM (inactive); in the test on Malme-3M, > 100 µM (inactive). The GI50 was > 100 µM (inactive) in the test on NCI-H23; > 100 µM (inactive) in the test on NCI-H522; > 100 µM (inactive) in the test on OVCAR-3; 52.7 µM (inactive) in the test with RPMI-8226; 49.2 µM (inactive) with SF-295; > 100 µM (inactive) with SF-539. The GI50 in the test with SK-MEL-28 is > 100 µM (inactive); in the test on SK-MEL-5, 48 µM (inactive); in the test on SNB-75, 50 µM (inactive); in the test on SW-620, 87.5 µM (inactive); in the test with UO-31, > 100 µM (inactive).
For the compound `CN(C)/C=N\c1ccn(CCO)c(=O)n1`, the GI50 in the test with EKVX is > 100 µM (inactive); with HCT-15, greater than 100 µM; in the test on HOP-62, > 100 µM (inactive); in the test on IGROV-1 it was > 100 µM (inactive); in the test on Malme-3M, > 100 µM (inactive); in the test on NCI-H23 it was > 100 µM (inactive). Besides, the GI50 in the test with NCI-H522, in the test with OVCAR-3, in the test on RXF 393, with SF-539, in the test with SK-MEL-28 and in the test on SK-MEL-5 was > 100 µM (inactive) each time. Besides, the GI50 in the test on SNB-75, in the test on SW-620 and in the test on UO-31 was > 100 µM (inactive) throughout.
With `CC(=O)NC1=C(NCC(C)C)C(=O)c2ccccc2C1=O`, the GI50 is 25 µM (inactive) in the test on EKVX; 17.7 µM in the test on HCT-15; 89.5 µM (inactive) with HOP-62; 14.3 µM (inactive) in the test on HOP-92; 43.5 µM (inactive) with IGROV-1; 18.9 µM (inactive) with Malme-3M. The GI50 in the test with NCI-H23 is 20 µM (inactive); with OVCAR-3, 16.6 µM (inactive); with RPMI-8226, 37.3 µM (inactive); in the test on RXF 393, 12.5 µM (inactive); with SF-295 it was 37.9 µM (inactive); in the test with SF-539, 17.3 µM (inactive). Moreover, the GI50 is 17.1 µM (inactive) in the test with SK-MEL-28; 19.9 µM (inactive) with SK-MEL-5; 16.9 µM (inactive) in the test on SNB-75; 16.5 µM (inactive) in the test on SW-620; 18 µM (inactive) with UO-31.
